Where a SMILES comes first, the peptide text is derived from it. [ ]: non-standard residue; d: D form. Nle = CCCC[C@H](N)C(=O)O
System: frog
Assay: In vitro potency relative to alpha-melanotropin (alpha-MSH), in the frog (Rana pipiens) skin bioassay
Format: functional

Molecule	Relative potency
CC(=O)N[C@@H](CCCCN)C(N)=O	0
CC(=O)N[C@@H](Cc1c[nH]cn1)C(=O)N[C@@H](Cc1ccccc1)C(=O)N[C@@H](CCCN=C(N)N)C(=O)N[C@@H](Cc1c[nH]c2ccccc12)C(N)=O	5e-06
CCCC[C@H](NC(C)=O)C(=O)N[C@@H](CCC(=O)O)C(=O)N[C@@H](Cc1c[nH]cn1)C(=O)N[C@@H](Cc1ccccc1)C(=O)N[C@@H](CCCN=C(N)N)C(=O)N[C@@H](Cc1c[nH]c2ccccc12)C(=O)NCC(=O)N[C@@H](CCCCN)C(=O)N1CCC[C@H]1C(=O)N[C@H](C(N)=O)C(C)C	0.4
CCCC[C@H](NC(C)=O)C(=O)N[C@@H](CCC(=O)O)C(=O)N[C@@H](Cc1c[nH]cn1)C(=O)N[C@@H](Cc1ccccc1)C(=O)N[C@@H](CCCN=C(N)N)C(=O)N[C@@H](Cc1c[nH]c2ccccc12)C(=O)NCC(N)=O	0.002
CSCC[C@H](NC(C)=O)C(=O)N[C@@H](CCC(=O)O)C(=O)N[C@@H](Cc1c[nH]cn1)C(=O)N[C@@H](Cc1ccccc1)C(=O)N[C@@H](CCCN=C(N)N)C(=O)N[C@@H](Cc1c[nH]c2ccccc12)C(=O)NCC(N)=O	0.0005
CC(=O)N[C@@H](Cc1ccccc1)C(=O)N[C@@H](CCCN=C(N)N)C(=O)N[C@@H](Cc1c[nH]c2ccccc12)C(=O)NCC(N)=O (Ac-FRWG-NH2)	0
CC(=O)N[C@@H](Cc1c[nH]cn1)C(=O)N[C@@H](Cc1ccccc1)C(=O)N[C@@H](CCCN=C(N)N)C(N)=O (Ac-His-Phe-Arg-NH2)	0
CC(=O)N[C@@H](Cc1c[nH]cn1)C(=O)N[C@@H](Cc1ccccc1)C(N)=O (Ac-His-Phe-NH2)	0
CC(=O)N[C@@H](CCCCN)C(=O)N1CCC[C@H]1C(=O)N[C@H](C(N)=O)C(C)C (Ac-Lys-Pro-Val-NH2)	0
CC(=O)N[C@@H](Cc1ccccc1)C(=O)N[C@@H](CCCN=C(N)N)C(N)=O (Ac-Phe-Arg-NH2)	0
CCCC[C@H](NC(C)=O)C(=O)N[C@@H](CCC(=O)O)C(=O)N[C@@H](Cc1c[nH]cn1)C(=O)N[C@@H](Cc1ccccc1)C(=O)N[C@@H](CCCN=C(N)N)C(=O)N[C@@H](Cc1c[nH]c2ccccc12)C(=O)NCC(=O)N[C@@H](CCCCN)C(N)=O (Ac-[Nle]EHFRWGK-NH2)	0.002
CCCC[C@H](NC(C)=O)C(=O)N[C@@H](CCC(=O)O)C(=O)N[C@@H](Cc1c[nH]cn1)C(=O)N[C@@H](Cc1ccccc1)C(=O)N[C@@H](CCCN=C(N)N)C(=O)N[C@@H](Cc1c[nH]c2ccccc12)C(=O)NCC(=O)N[C@@H](CCCCN)C(=O)N1CCC[C@H]1C(N)=O (Ac-[Nle]EHFRWGKP-NH2)	0.18
N=C(N)NCCC[C@H](NC(=O)[C@@H](N)Cc1ccccc1)C(=O)O (H-Phe-Arg-OH)	0
Ac-EHFRWG-NH2	0.00014
Ac-HFRWG-NH2	8e-05
Ac-MEHFRWGKP-NH2	0.18

Source: ChEMBL document CHEMBL1123651, “alpha-Melanotropin: the minimal active sequence in the frog skin bioassay” (J Med Chem, 1987)
